Laboratory results taken from patent US5885782A, “Synthetic antibiotics” (priority 1997, dated 1999).

Key:
[1] = system: Fusarum oxysporum f. sp. lycopersici race 1, strain RMI; assay: Checkerboard combination of peptide with antifungal agent (Limpel method), Fusarium; assay type: cell-based, Fusarium oxysporum; set-up: key to Expected Inhibition (Limpel formula): expected % inhibition, Ec = X + Y - XY/100 (Limpel)
Protocol: (§1) Antimicrobial peptides were mixed with known antifungal compounds according to the checkerboard method of Eliopoulos and Moellering, 1991 and the effect of these mixtures was determined.
(§2) The checkerboard method requires serial dilutions of two antimicrobial compounds in concentration ranges spanning the minimal inhibitory concentrations (MICs) of the compounds. Synergism, antagonism, or additivity of the drug combinations was by measured by determining the antimicrobial effect of the various dilutions of the two drugs. Synergism existed when the antimicrobial effect of a mixture was greater than the sum of the independent antimicrobial effects of its combined components. Additivity was indicated when the antimicrobial effect of a drug combination was simply the sum of the independent antimicrobial effects. Antagonism existed when the antimicrobial effect of a mixture of drugs was less than the sum of the independent antimicrobial effects of the separate drugs.
Frozen glycerol stocks of F. oxysporum f. sp. lycopersici microconidia were used for the bioassays. Microconidia or spores were thawed on ice, washed 2× in PDB, and diluted in 2× PDB to obtain the appropriate inoculum concentration for the assay. The 2× PDB was employed for the dilutions to obtain a final concentration of I× PDB in each test well. Microtiter plates were incubated without shaking, in the dark, at 250 C. Absorbance readings were recorded at 24 hr intervals for 72 h. To follow growth in the microtiter plates, an EMAX PRECISION MICROPLATE READER (Molecular Devices Corp., Menlo Park, Calif.) attached to a HEWLETT-PACKARD THINK-JET (Hewlett-Packard Company, Vancouver, Wash.) printer was used to obtain the absorbance (at 595 run) readings. All test combinations were performed in triplicate. Sterile, disposable, flat bottom, polystyrene, 96~well (with lid) microtiter plates (Corning Glass Works, Scientific Products Division, Corning, N.Y.) were used to conduct the assays. The initial concentration of peptide FRLKFH-NH2 (Seq. ID No.34), peptide FRLKFHI-NH2 (Seq. ID No.40), nystatin (5.13 units/ug), and miconazole used in the assay series were 26, 60, 88, and 60 ug/ml, respectively. The checkerboard was setup as described by Eliopoulos and Moellering, 1991. Once the checkerboard mixtures were prepared 50 ul of inoculum […] was added to each of the wells. F. oxysporum f. sp. lycopersici microconidia were produced using FLC medium. Esposito, R. and Fletcher, A. M. 1961. A 4 mm square of an actively growing culture was taken from PDA to 50 ml of FLC broth in a sterile 250 ml screwcap flask. The culture was incubated with shaking […] at 250 C. After 96 h, the slurry of mycelia and microconidia was filtered twice through 3 layers of sterile cheesecloth to obtain the microconidial suspension. The microconidial suspension was adjusted to a concentration of 1-5×10^7 microconidial/ml using a Brightlme hemacytometer (Hausser Scientific, Horsham, Pa.) and stored frozen in I ml aliquots in 20% sterile glycerol at -80C.
(§3) Synergism between known antifungal compounds and antifungal peptides was also studied using the method of Limpel as described by Richer. Richer, D. L. 1987. The methodology of Limpel is described by the equation: […]
(§4) Where Ec is the expected additive effect of two antifungal agents, X is the observed percentage inhibition of the test organism when antifungal agent A is applied alone at the rate used in the mixture, and Y is the observed percentage inhibition of the test organism when antifungal agent B is used alone at the rate used in the mixture. […] Richer, D. L. 1987.
(§5) Experimental studies were set up using the checkerboard method as described by Eliopoulos and Moellering, 1991. The observed inhibitory effects of the antifungal agent and peptide combinations were measured as described above and compared with Ec as calculated from the Limpel formula.

Aspergillus fumigatus = assay: Checkerboard combination of peptide with antifungal agent (Limpel method), Aspergillus fumigatus; assay type: cell-based
Protocol: as §1, §2, §3, §4, §5

Aspergillus paraciticus = assay: Checkerboard combination of peptide with antifungal agent (Limpel method), Aspergillus paraciticus; assay type: cell-based
Protocol: as §1, §2, §3, §4, §5

[2] = Nystatin 0.3 ug/ml, Peptide 0 ug/ml
[3] = Nystatin 0.6 ug/ml, Peptide 0 ug/ml
[4] = Nystatin 1.3 ug/ml, Peptide 0 ug/ml
[5] = Nystatin 2.5 ug/ml, Peptide 0 ug/ml
[6] = Nystatin 5 ug/ml, Peptide 0 ug/ml
[7] = Nystatin 10 ug/ml, Peptide 0 ug/ml
[8] = Nystatin 20 ug/ml, Peptide 0 ug/ml
[9] = Nystatin 0 ug/ml, Peptide 0.6 ug/ml
[10] = Nystatin 0 ug/ml, Peptide 1.3 ug/ml
[11] = Nystatin 0 ug/ml, Peptide 2.5 ug/ml
[12] = Nystatin 0 ug/ml, Peptide 5 ug/ml

Q: Which results are given for `C[C@@H]1[C@H](O)[C@@H](C)/C=C/C=C/CC/C=C/C=C/C=C/C=C/C(O[C@H]2O[C@H](C)[C@@H](O)[C@H](N)[C@@H]2O)CC2O[C@](O)(CC(O)C(O)CCC(O)CC(O)CC(O)CC(=O)O[C@H]1C)CC(O)C2C(=O)O` (stereo partly drawn) [Nystatin, nystatin]?
A: Expected Inhibition (Limpel formula) [1, 2]: 6.0; Observed Inhibition (percentage inhibition) [1, 2]: 6.0; Expected Inhibition (Limpel formula) [1, 3]: 3.0; Observed Inhibition (percentage inhibition) [1, 3]: 3.0; Expected Inhibition (Limpel formula) [1, 4]: 4.0; Observed Inhibition (percentage inhibition) [1, 4]: 4.0; Expected Inhibition (Limpel formula) [1, 5]: 1.0; Observed Inhibition (percentage inhibition) [1, 5]: 1.0; Expected Inhibition (Limpel formula) [1, 6]: 16.0; Observed Inhibition (percentage inhibition) [1, 6]: 16.0; Expected Inhibition (Limpel formula) [1, 7]: 100.0; Observed Inhibition (percentage inhibition) [1, 7]: 100.0; Expected Inhibition (Limpel formula) [1, 8]: 100.0; Observed Inhibition (percentage inhibition) [1, 8]: 100.0

Q: Which “interaction with amphotericin B (observed vs expected inhibition)” value ([1]; peptide 5.0-10.0 ug/ml, amphotericin B 0.3-2.0 ug/ml, Fusarium oxysporum, Table XVI) does the source give for “FRLKFH: D-amino acid hexapeptide FRLKFH-NH2” here?
A: synergism

Q: And the “interaction with nystatin (observed vs expected inhibition)” value (Aspergillus fumigatus; peptide 4.4-7.5 ug/ml, nystatin 0.6-2.5 ug/ml, Table XXII)?
A: synergism

Q: And the “interaction with miconazole (observed vs expected inhibition)” value (Aspergillus fumigatus; peptide 17.5-70 ug/ml, miconazole 0.3-2.0 ug/ml, Table XX)?
A: synergism

Q: For “FRLKFHF [D-amino acid heptapeptide FRLKFHF-NH2]”, which “Expected Inhibition (Limpel formula)” value [1, 9] is on record?
A: 2.0

Q: And the “Observed Inhibition (percentage inhibition)” value [1, 9]?
A: 2.0

Q: What about the “Expected Inhibition (Limpel formula)” value [1, 10] of the same compound?
A: 0.0

Q: And the “Observed Inhibition (percentage inhibition)” value [1, 10]?
A: 0.0

Q: What about the “Expected Inhibition (Limpel formula)” value [1, 11] of the same compound?
A: 13.0

Q: And the “Observed Inhibition (percentage inhibition)” value [1, 11]?
A: 13.0

Q: And the “Expected Inhibition (Limpel formula)” value [1, 12]?
A: 29.0

Q: And the “Observed Inhibition (percentage inhibition)” value [1, 12]?
A: 29.0

Q: And the “interaction with nystatin (observed vs expected inhibition)” value ([1]; nystatin 0.3-5 ug/ml, peptide 0.6-5 ug/ml, Fusarium oxysporum, Table XIV)?
A: synergism

Q: What about the “interaction with miconazole (observed vs expected inhibition)” value ([1]; peptide 1.3-5.0 ug/ml, miconazole 0.6-20 ug/ml, Fusarium oxysporum, Table XVII) of the same compound?
A: synergism

Q: What about the “interaction with fluconazole (observed vs expected inhibition)” value (Aspergillus fumigatus; peptide 1.3-20.0 ug/ml, fluconazole 29-230 ug/ml, Table XVIII) of the same compound?
A: synergism

Q: What about the “interaction with amphotericin B (observed vs expected inhibition)” value (Aspergillus paraciticus; peptide 2.5-10 ug/ml, amphotericin B 0.2-0.6 ug/ml, Table XXIV) of the same compound?
A: synergism

Q: And the “interaction with nystatin (observed vs expected inhibition)” value (Aspergillus paraciticus; peptide 2.5-10 ug/ml, nystatin 0.3-5.0 ug/ml, Table XXVI)?
A: synergism

Q: And the “interaction with fluconazole (observed vs expected inhibition)” value (Aspergillus paraciticus; peptide 2.5-20 ug/ml, fluconazole 7.5-120 ug/ml, Table XXV)?
A: synergism

Q: For “FRLKFHI [D- amino acid heptapeptide FRLKFHI-NH2]”, which “interaction with amphotericin B (observed vs expected inhibition)” value ([1]; peptide 0.9-7.0 ug/ml, amphotericin B 0.9-7.5 ug/ml, Fusarium oxysporum, Table XV) is on record?
A: synergism

Q: What about the “interaction with fluconazole (observed vs expected inhibition)” value ([1]; peptide 1.3-20 ug/ml, fluconazole 28.7-229.5 ug/ml, Fusarium oxysporum, Table XXVII) of the same compound?
A: synergism

Q: And the “interaction with miconazole (observed vs expected inhibition)” value (Aspergillus fumigatus; peptide 1.340 ug/ml, miconazole 0.5-2.0 ug/ml, Table XIX)?
A: synergism

Q: What about the “interaction with fluconazole (observed vs expected inhibition)” value (Aspergillus fumigatus; peptide 1.3-20 ug/ml, fluconazole 28.7-229.5 ug/ml, Table XXI) of the same compound?
A: synergism

Q: What about the “interaction with miconazole (observed vs expected inhibition)” value (Aspergillus paraciticus; peptide 3.8-60 ug/ml, miconazole 0.2-1.3 ug/ml, Table XXIII) of the same compound?
A: synergism
